{"source": "paper PMC10959927", "about": "“Platinum iodido drugs show potential anti-tumor activity, affecting cancer cell metabolism and inducing ROS and senescence in gastrointestinal cancer cells” (Communications Biology, 2024)", "format_in_all_cases": "cell-based, human", "key": {"PANC1 cells [1]": {"test_system": "PANC1 cells", "test": "Clonogenic (CFU) assay after 1, 3, 24 h pre-treatment", "experimental": "(§1) For the clonogenic assay we used two different approaches. […] Then, cells were cultured in a 6-well plate at a very low concentration (2 × 10^3 cells per well) and incubated for 10 days. […] To evaluate the role of ROS in cell proliferation, we supplemented the growth medium with 0.5 mM NAC. After 10 days, the cells were fixed with 1% glutaraldehyde and stained with 0.1% crystal violet. The number of colonies was quantified directly and reflected as CFUs: Colony Forming Units."}, "PANC1 cells [2]": {"test_system": "PANC1 cells", "test": "Ratio GSH/GSSG, colorimetric kit", "experimental": "(§2) GSH and GSSG levels were determined in AGS and PANC1 cells after 3 and 24 h of treatment with the compounds (using H2O2 as a positive control) with the Glutathione Colorimetric Detection Kit (ThermoFisher) following the manufacturer’s instructions. Thirty minutes after adding the Colorimetric Detection Reagent and the Reaction Mixture, the absorbance was read at 405 nm. A standard curve was generated with each assay to interpolate the sample results. To measure GSSG, standards and samples must be diluted with the Sample Diluent containing 2-vinylpyridine."}, "AGS cells [3]": {"test_system": "AGS cells", "test": "Ratio GSH/GSSG, colorimetric kit", "experimental": "as §2"}, "MKN45 cells [4]": {"test_system": "MKN45 cells", "test": "Immunofluorescence of γ-H2AX foci", "conditions": "Fig. 3B; for foci/cell, number of cells in class: cell count", "experimental": "(§3) Cells (7 × 10^4) were seeded on 20 mm coverslips. […] Coverslips were incubated for 1 h with the primary antibody (Cell Signaling: H2AX Ser139 (#2595) and 53BP1 (#4937)) at room temperature, followed by a 1 h incubation with the appropriate secondary antibody. DNA was stained with DAPI. Fluorescence microscopy was performed using a NIKON Eclipse 90i. The image analysis was performed using the software program Nikon NIS-Elements and Image J."}, "MKN45 cells [5]": {"test_system": "MKN45 cells", "test": "Clonogenic (CFU) assay with or without NAC", "conditions": "10 days", "experimental": "as §1"}, "AGS cells [6]": {"test_system": "AGS cells", "test": "Clonogenic (CFU) assay with or without NAC", "conditions": "IC50 concentration, 10 days", "experimental": "as §1"}, "PANC1 cells [7]": {"test_system": "PANC1 cells", "test": "Immunofluorescence of γ-H2AX and 53BP1 foci", "conditions": "for foci/cell, share of cells in class (Suma 100) / foci/cell, number of cells in class: PANC1, Fig. 3B; for foci/cell, number of cells in class: cell count", "experimental": "as §3"}, "AGS cells [8]": {"test_system": "AGS cells", "test": "Immunofluorescence of γ-H2AX and 53BP1 foci", "conditions": "for foci/cell, share of cells in class (Suma 100) / foci/cell, number of cells in class: Fig. 3B; for foci/cell, number of cells in class: cell count", "experimental": "as §3"}}, "note": "Several values for one entry are separate records, joined by “and”; a condition that tells them apart may be missing. Equal entries are not always repeated."}
{"smiles": "[NH2][Pt]([NH2])([Cl])[Cl]", "note": "[CDDP, cisplatin, reference compound]", "values": [{"measurement": "CFUs", "setting": "PANC1 cells [1]; PANC1, 1 h pre-treatment at IC50, colonies after 10 days", "value": "160 and 132 and 144"}, {"measurement": "CFUs", "setting": "PANC1 cells [1]; PANC1, 3 h pre-treatment at IC50, colonies after 10 days", "value": "20 and 28 and 36"}, {"measurement": "GSH/GSSG", "setting": "PANC1 cells [2]; PANC1, 3, relative to Control = 1", "value": "0.8204 and 0.833 and 0.8843"}, {"measurement": "GSH/GSSG", "setting": "PANC1 cells [2]; PANC1, 24, relative to Control = 1", "value": "0.8133 and 0.9393 and 0.9531"}, {"measurement": "GSH/GSSG", "setting": "AGS cells [3]; AGS, 3, relative to Control = 1", "value": "0.992 and 0.9971 and 1.026"}, {"measurement": "GSH/GSSG", "setting": "AGS cells [3]; AGS, 24, relative to Control = 1", "value": "0.8767 and 0.8827 and 0.9433"}, {"measurement": "foci/cell, share of cells in class (Suma 100)", "setting": "MKN45 cells [4]; class 16-30 foci/cell", "value": 6.667}, {"measurement": "foci/cell, number of cells in class", "setting": "MKN45 cells [4]; class 16-30 foci/cell", "value": 4}, {"measurement": "foci/cell, share of cells in class (Suma 100)", "setting": "MKN45 cells [4]; class 31-45 foci/cell", "value": 13.3333}, {"measurement": "foci/cell, number of cells in class", "setting": "MKN45 cells [4]; class 31-45 foci/cell", "value": 8}, {"measurement": "foci/cell, share of cells in class (Suma 100)", "setting": "MKN45 cells [4]; class 46-60 foci/cell", "value": 16.6667}, {"measurement": "foci/cell, number of cells in class", "setting": "MKN45 cells [4]; class 46-60 foci/cell", "value": 10}, {"measurement": "foci/cell, share of cells in class (Suma 100)", "setting": "MKN45 cells [4]; class <15 foci/cell", "value": 0}, {"measurement": "foci/cell, number of cells in class", "setting": "MKN45 cells [4]; class <15 foci/cell", "value": 0}, {"measurement": "foci/cell, share of cells in class (Suma 100)", "setting": "MKN45 cells [4]; class >61 foci/cell", "value": 63.3333}, {"measurement": "foci/cell, number of cells in class", "setting": "MKN45 cells [4]; class >61 foci/cell", "value": 38}, {"measurement": "colonies (CFUs), mean ± SD", "setting": "MKN45 cells [5]; MKN45 + NAC 0.5 mM, IC50 concentration", "value": "1 ± 1.4"}, {"measurement": "colonies (CFUs), mean ± SD", "setting": "MKN45 cells [5]; MKN45, IC50 concentration, no NAC", "value": "1 ± 1"}, {"measurement": "colonies (CFUs), mean ± SD", "setting": "AGS cells [6]; AGS + NAC 0.5 mM", "value": "0.7 ± 0.6"}, {"measurement": "colonies (CFUs), mean ± SD", "setting": "AGS cells [6]; AGS, no NAC", "value": 0}, {"measurement": "foci/cell: number of cells with 16-30 foci", "setting": "PANC1 cells [7]; PANC1, Fig. S4B, cell counts", "value": 32}, {"measurement": "foci/cell: number of cells with 31-45 foci", "setting": "PANC1 cells [7]; PANC1, Fig. S4B, cell counts", "value": 36}, {"measurement": "foci/cell: number of cells with 46-60 foci", "setting": "PANC1 cells [7]; PANC1, Fig. S4B, cell counts", "value": 25}, {"measurement": "foci/cell: number of cells with <15 foci", "setting": "PANC1 cells [7]; PANC1, Fig. S4B, cell counts", "value": 21}, {"measurement": "foci/cell: number of cells with >61 foci", "setting": "PANC1 cells [7]; PANC1, Fig. S4B, cell counts", "value": 22}, {"measurement": "foci/cell: share of cells with 16-30 foci (Suma 100)", "setting": "PANC1 cells [7]; PANC1, Fig. S4B, share of N", "value": 23.5294}, {"measurement": "foci/cell: share of cells with 31-45 foci (Suma 100)", "setting": "PANC1 cells [7]; PANC1, Fig. S4B, share of N", "value": 26.4706}, {"measurement": "foci/cell: share of cells with 46-60 foci (Suma 100)", "setting": "PANC1 cells [7]; PANC1, Fig. S4B, share of N", "value": 18.3824}, {"measurement": "foci/cell: share of cells with <15 foci (Suma 100)", "setting": "PANC1 cells [7]; PANC1, Fig. S4B, share of N", "value": 15.4412}, {"measurement": "foci/cell: share of cells with >61 foci (Suma 100)", "setting": "PANC1 cells [7]; PANC1, Fig. S4B, share of N", "value": 16.1765}, {"measurement": "foci/cell, share of cells in class (Suma 100)", "setting": "PANC1 cells [7]; class 16-30 foci/cell", "value": 10}, {"measurement": "foci/cell, number of cells in class", "setting": "PANC1 cells [7]; class 16-30 foci/cell", "value": 11}, {"measurement": "foci/cell, share of cells in class (Suma 100)", "setting": "PANC1 cells [7]; class 31-45 foci/cell", "value": 23.6364}, {"measurement": "foci/cell, number of cells in class", "setting": "PANC1 cells [7]; class 31-45 foci/cell", "value": 26}, {"measurement": "foci/cell, share of cells in class (Suma 100)", "setting": "PANC1 cells [7]; class 46-60 foci/cell", "value": 20}, {"measurement": "foci/cell, number of cells in class", "setting": "PANC1 cells [7]; class 46-60 foci/cell", "value": 22}, {"measurement": "foci/cell, share of cells in class (Suma 100)", "setting": "PANC1 cells [7]; class <15 foci/cell", "value": 6.364}, {"measurement": "foci/cell, number of cells in class", "setting": "PANC1 cells [7]; class <15 foci/cell", "value": 7}, {"measurement": "foci/cell, share of cells in class (Suma 100)", "setting": "PANC1 cells [7]; class >61 foci/cell", "value": 40}, {"measurement": "foci/cell, number of cells in class", "setting": "PANC1 cells [7]; class >61 foci/cell", "value": 44}, {"measurement": "foci/cell, share of cells in class (Suma 100)", "setting": "AGS cells [8]; class 16-30 foci/cell", "value": 23.0769}, {"measurement": "foci/cell, number of cells in class", "setting": "AGS cells [8]; class 16-30 foci/cell", "value": 18}, {"measurement": "foci/cell, share of cells in class (Suma 100)", "setting": "AGS cells [8]; class 31-45 foci/cell", "value": 26.9231}, {"measurement": "foci/cell, number of cells in class", "setting": "AGS cells [8]; class 31-45 foci/cell", "value": 21}, {"measurement": "foci/cell, share of cells in class (Suma 100)", "setting": "AGS cells [8]; class 46-60 foci/cell", "value": 21.7949}, {"measurement": "foci/cell, number of cells in class", "setting": "AGS cells [8]; class 46-60 foci/cell", "value": 17}, {"measurement": "foci/cell, share of cells in class (Suma 100)", "setting": "AGS cells [8]; class <15 foci/cell", "value": 21.7949}, {"measurement": "foci/cell, number of cells in class", "setting": "AGS cells [8]; class <15 foci/cell", "value": 17}, {"measurement": "foci/cell, share of cells in class (Suma 100)", "setting": "AGS cells [8]; class >61 foci/cell", "value": 6.41}, {"measurement": "foci/cell, number of cells in class", "setting": "AGS cells [8]; class >61 foci/cell", "value": 5}, {"measurement": "foci/cell: number of cells with 16-30 foci", "setting": "AGS cells [8]; Fig. S4B, cell counts", "value": 35}, {"measurement": "foci/cell: number of cells with 31-45 foci", "setting": "AGS cells [8]; Fig. S4B, cell counts", "value": 15}, {"measurement": "foci/cell: number of cells with 46-60 foci", "setting": "AGS cells [8]; Fig. S4B, cell counts", "value": 5}, {"measurement": "foci/cell: number of cells with <15 foci", "setting": "AGS cells [8]; Fig. S4B, cell counts", "value": 45}, {"measurement": "foci/cell: number of cells with >61 foci", "setting": "AGS cells [8]; Fig. S4B, cell counts", "value": 4}, {"measurement": "foci/cell: share of cells with 16-30 foci (Suma 100)", "setting": "AGS cells [8]; Fig. S4B, share of N", "value": 33.6538}, {"measurement": "foci/cell: share of cells with 31-45 foci (Suma 100)", "setting": "AGS cells [8]; Fig. S4B, share of N", "value": 14.4231}, {"measurement": "foci/cell: share of cells with 46-60 foci (Suma 100)", "setting": "AGS cells [8]; Fig. S4B, share of N", "value": 4.808}, {"measurement": "foci/cell: share of cells with <15 foci (Suma 100)", "setting": "AGS cells [8]; Fig. S4B, share of N", "value": 43.2692}, {"measurement": "foci/cell: share of cells with >61 foci (Suma 100)", "setting": "AGS cells [8]; Fig. S4B, share of N", "value": 3.846}]}
